Data taken from publication PMC10302202, “The Finding of New In Vivo Metabolite Triptorelin (5-10) in Human Urine Using Liquid Chromatography Coupled with Ion Trap/Time-of-Flight Mass Spectrometry with Dimethyl Sulfoxide Additives in the Mobile Phase” (Molecules, 2023).
Non-standard residues stand in square brackets, D forms with d. Residues, ends and D or L forms follow the SMILES beside them.

Tests used:
[1] = Urine levels of triptorelin and triptorelin (5-10) in patients after triptorelin administration (LC/MS-IT-TOF); type: in vivo, human; conditions: for detection level in urine, 3 h / detection level in urine, 6 h: first time, prostate cancer patient
Description: The column compartment temperature was set at 30 °C. The autosampler unit temperature was set at 10 °C. […] The spray voltage was set at 4 kV.
A further urine sample was collected one month later.
The injection volume was 30 μL. The total runtime is 9 min.

[2] = Urine levels of leuprorelin and leuprorelin (5-9) in patients after leuprorelin administration (LC/MS-IT-TOF); conditions: SPE; for detection level in urine, 3 h / detection level in urine, 6 h: first time, prostate cancer patient
Description: (§1) Sample analysis was carried out by using the LCMS-IT-TOF Prominence system (Shimadzu, Japan) and LC model UPLC 8040 [18]. The analytical column was a Poroshell 120 EC-C18 (2.1 mm × 150 mm, 2.7 μm particle) coupled with a guard column (SecurityGuard^TM C18, 3.0 mm). The column compartment temperature was set at 30 °C. The autosampler unit temperature was set at 10 °C. Dry gas was set at 47 kPa, and nebulizer gas was set at 1.5 L/min. The curved desolvation line (CDL) and heating block temperature were set at 250 °C. The spray voltage was set at 4 kV.
(§2) Urine samples were collected at the Division of Urology, Department of Surgery, Faculty of Medicine, Ramathibodi Hospital, Bangkok, Thailand. […] Urine samples were collected at 0.0, 3.0, and 6.0 h from 5 patients who had received either 11.25 mg of Enantone® L.P (leuprorelin acetate) or Diphereline® P.R. (triptorelin pamoate) intramuscularly for the first time.
(§3) In this study, 200 mL of sodium phosphate buffer (pH 6.8; 0.8 M) was added to a 3.0 mL aliquot of urine. The batch of samples was centrifuged at 5000 rpm for 5 min at 5 °C. The supernatant from each tube was transferred to a new set of protein LoBind® tubes, Eppendorf (Melbourne, Australia) and 20 μL of ISTD (see Section 4.3) was added to each sample [17]. SPE cartridges (see Section 4.1) were activated with 2 mL of methanol followed by 2 mL of ultra-pure water. The supernatants were slowly loaded onto the SPE cartridges (flow rate is approximately 1.0 mL/min) and washed with 1 mL of water, followed by 1 mL of freshly prepared 10% v/v aqueous methanol; then, all washing solutions were removed and dried using a vacuum pump. Elution was performed using freshly prepared 10% v/v formic acid in methanol. Eluates were evaporated at 45 °C to approximately 10 μL in a vacuum centrifuge. The residues were reconstituted in 50 μL of freshly prepared 0.1% formic acid in water.
(§4) The mobile phases were 0.1% formic acid in water with or without 1% DMSO (mobile phase A) and acetonitrile (mobile phase B) at a flow rate of 0.3 mL/min. The mobile phase gradient program was as follows: 0.0–2.0 min, 20 to 30% B; 2.0–4.0 min, 30 to 45% B; 4.0–5.0 min, 45 to 100% B; 5.0–6.0 min, hold at 100% B; 6.0–7.0 min, 100% to 20% B; and 7.0–9.0 min hold at 20% B (column equilibration). The injection volume was 30 μL. The total runtime is 9 min.
(§5) Mass spectrometric analysis was employed both in the full-scan mode and MS-MS mode. Data analysis was performed using 2 product ion transitions for each compound. LC/MS-IT-TOF mass spectrometric variables, including the m/z of product ions, ion accumulation time, and collision energy (CE), were optimized for maximum abundance for each ion transition. Ionization was performed using ESI in the positive ion mode at 3500 V. The ion accumulation time was 10 milliseconds, and the isolation width was 1.5 Dalton.
(§6) The mean and standard deviation of the concentration of leuprorelin, leuprorelin (5-9), triptorelin, and triptorelin (5-10) from 5 patients were used for statistical analysis.

clinical = conditions: human, in vivo, im, 11.25 mg, detection level in urine, mean
Description: as §1, §2, §3, §4, §5, §6

[3] = in vivo; cited from earlier work

Compound: CC(C)C[C@H](NC(=O)[C@@H](Cc1c[nH]c2ccccc12)NC(=O)[C@H](Cc1ccc(O)cc1)NC(=O)[C@H](CO)NC(=O)[C@H](Cc1c[nH]c2ccccc12)NC(=O)[C@H](Cc1c[nH]cn1)NC(=O)[C@@H]1CCC(=O)N1)C(=O)N[C@@H](CCCNC(=N)N)C(=O)N1CCC[C@H]1C(=O)NCC(N)=O [Triptorelin, triptorelin]
- level at 3 h ([1]; human, urine, im, 11.25 mg, mean of n = 5 patients, urine 3 h after 11.25 mg Diphereline P.R. (triptorelin pamoate) intramuscularly, SPE, LC/MS-IT-TOF, read-out: detection level in urine, 3 h, mean): 64.1 ng/mL
- level at 6 h ([1]; human, urine, im, 11.25 mg, mean of n = 5 patients, urine 6 h after 11.25 mg Diphereline P.R. (triptorelin pamoate) intramuscularly, SPE, LC/MS-IT-TOF, read-out: detection level in urine, 6 h, mean): 62.6 ng/mL

Compound: CCNC(=O)[C@@H]1CCCN1C(=O)[C@H](CCCNC(=N)N)NC(=O)[C@H](CC(C)C)NC(=O)[C@@H](CC(C)C)NC(=O)[C@@H](N)Cc1ccc(O)cc1 [Leuprorelin (5-9), leuprorelin (5-9)] (H-Y[dL]LRP-NHEt)
- detection level in urine, 3 h, mean ([2]; mean of n = 5 patients, urine 3 h after 11.25 mg Enantone L.P (leuprorelin acetate) intramuscularly): 74.8 ng/mL
- detection level in urine, 6 h, mean ([2]; mean of n = 5 patients, urine 6 h after 11.25 mg Enantone L.P (leuprorelin acetate) intramuscularly): 78.9 ng/mL
- detection level in urine, 3 h ([2]; patient 1, urine 3 h after 11.25 mg Enantone L.P (leuprorelin acetate) intramuscularly): 68.0 ng/mL
- detection level in urine, 6 h ([2]; patient 1, urine 6 h after 11.25 mg Enantone L.P (leuprorelin acetate) intramuscularly): 73.1 ng/mL
- detection level in urine, 3 h ([2]; patient 2, urine 3 h after 11.25 mg Enantone L.P (leuprorelin acetate) intramuscularly): 106.9 ng/mL
- detection level in urine, 6 h ([2]; patient 2, urine 6 h after 11.25 mg Enantone L.P (leuprorelin acetate) intramuscularly): 18.7 ng/mL
- detection level in urine, 3 h ([2]; patient 3, urine 3 h after 11.25 mg Enantone L.P (leuprorelin acetate) intramuscularly): 162.9 ng/mL
- detection level in urine, 6 h ([2]; patient 3, urine 6 h after 11.25 mg Enantone L.P (leuprorelin acetate) intramuscularly): 100.4 ng/mL
- detection level in urine, 3 h ([2]; patient 4, urine 3 h after 11.25 mg Enantone L.P (leuprorelin acetate) intramuscularly): 16.7 ng/mL
- detection level in urine, 6 h ([2]; patient 4, urine 6 h after 11.25 mg Enantone L.P (leuprorelin acetate) intramuscularly): 23.8 ng/mL
- detection level in urine, 3 h ([2]; patient 5, urine 3 h after 11.25 mg Enantone L.P (leuprorelin acetate) intramuscularly): 19.3 ng/mL
- detection level in urine, 6 h ([2]; patient 5, urine 6 h after 11.25 mg Enantone L.P (leuprorelin acetate) intramuscularly): 178.7 ng/mL

Compound: CC(C)C[C@H](NC(=O)[C@@H](Cc1c[nH]c2ccccc12)NC(=O)[C@@H](N)Cc1ccc(O)cc1)C(=O)N[C@@H](CCCNC(=N)N)C(=O)N1CCC[C@H]1C(=O)NCC(N)=O [Triptorelin (5-10), triptorelin (5-10)] (H-Y[dW]LRPG-NH2)
- detection level in urine, 1 month, mean ([1]; mean line, n = 5 for triptorelin, n = 3 for triptorelin (5-10), urine 1 month after 11.25 mg Diphereline P.R. (triptorelin pamoate) intramuscularly, ND = not detectable): 0.7 ng/mL
- detection level in urine, 3 h, mean ([1]; mean of n = 5 patients, urine 3 h after 11.25 mg Diphereline P.R. (triptorelin pamoate) intramuscularly, SPE, LC/MS-IT-TOF): 105.5 ng/mL
- detection level in urine, 1 month ([1]; patient 1, urine 1 month after 11.25 mg Diphereline P.R. (triptorelin pamoate) intramuscularly, ND = not detectable, SPE, LC/MS-IT-TOF): 1.2 ng/mL
- detection level in urine, 3 h ([1]; patient 1, urine 3 h after 11.25 mg Diphereline P.R. (triptorelin pamoate) intramuscularly, SPE, LC/MS-IT-TOF): 84.3 ng/mL
- detection level in urine, 6 h ([1]; patient 1, urine 6 h after 11.25 mg Diphereline P.R. (triptorelin pamoate) intramuscularly, SPE, LC/MS-IT-TOF): 24.7 ng/mL
- detection level in urine, 1 month ([1]; patient 2, urine 1 month after 11.25 mg Diphereline P.R. (triptorelin pamoate) intramuscularly, ND = not detectable, SPE, LC/MS-IT-TOF): 0.3 ng/mL
- detection level in urine, 3 h ([1]; patient 2, urine 3 h after 11.25 mg Diphereline P.R. (triptorelin pamoate) intramuscularly, SPE, LC/MS-IT-TOF): 25.3 ng/mL
- detection level in urine, 6 h ([1]; patient 2, urine 6 h after 11.25 mg Diphereline P.R. (triptorelin pamoate) intramuscularly, SPE, LC/MS-IT-TOF): 43.5 ng/mL
- detection level in urine, 3 h ([1]; patient 3, urine 3 h after 11.25 mg Diphereline P.R. (triptorelin pamoate) intramuscularly, SPE, LC/MS-IT-TOF): 12.8 ng/mL
- detection level in urine, 6 h ([1]; patient 3, urine 6 h after 11.25 mg Diphereline P.R. (triptorelin pamoate) intramuscularly, SPE, LC/MS-IT-TOF): 3.2 ng/mL
- detection level in urine, 3 h ([1]; patient 4, urine 3 h after 11.25 mg Diphereline P.R. (triptorelin pamoate) intramuscularly, SPE, LC/MS-IT-TOF): 225.7 ng/mL
- detection level in urine, 6 h ([1]; patient 4, urine 6 h after 11.25 mg Diphereline P.R. (triptorelin pamoate) intramuscularly, SPE, LC/MS-IT-TOF): 250.6 ng/mL
- detection level in urine, 1 month ([1]; patient 5, urine 1 month after 11.25 mg Diphereline P.R. (triptorelin pamoate) intramuscularly, ND = not detectable, SPE, LC/MS-IT-TOF): 0.6 ng/mL
- detection level in urine, 3 h ([1]; patient 5, urine 3 h after 11.25 mg Diphereline P.R. (triptorelin pamoate) intramuscularly, SPE, LC/MS-IT-TOF): 179.1 ng/mL
- detection level in urine, 6 h ([1]; patient 5, urine 6 h after 11.25 mg Diphereline P.R. (triptorelin pamoate) intramuscularly, SPE, LC/MS-IT-TOF): 202.0 ng/mL

Compound: CCNC(=O)[C@@H]1CCCN1C(=O)[C@H](CCCNC(=N)N)NC(=O)[C@H](CC(C)C)NC(=O)[C@@H](CC(C)C)NC(=O)[C@H](Cc1ccc(O)cc1)NC(=O)[C@H](CO)NC(=O)[C@H](Cc1c[nH]c2ccccc12)NC(=O)[C@H](Cc1c[nH]cn1)NC(=O)[C@@H]1CCC(=O)N1 [Leuprorelin, leuprorelin]
- level at 3 h (clinical; 3 h): 65 ng/mL
- level at 6 h (clinical; 6 h): 106 ng/mL

Compound: GnRH: endogenous 10-amino-acid peptide synthesized and produced in the hypothalamus
- half-life [3]: 2 min
